The numbers were not newly measured in patent US20100233107A1, “MEDICATED TONING LOTION” (priority 2009, published 2010), which cites them from elsewhere.

Take `O=C(O)c1ccccc1O` [salicylic acid]: the solubility in water entry is on record as “approximately 0.2 % by weight”. For the same compound, under “one gram of salicylic acid”, the “volume of water in which one gram dissolves” value was 460 mL.
